Test systems include A498; CCRF-CEM; DU-145; HCT-116; HCT-15; KM12; LOX IMVI; NCI-H226; NCI-H522; SF-268; SF-295; SK-MEL-28; SK-MEL-5; SK-OV-3; SN12C; SR; T47D; UO-31; HL-60; MCF7.
Common to all, as to experiment: NCI anticancer screen, dose series, 48 h

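Cultured in 96-well plates, cells were exposed to test compound for 48 hours across five concentrations. Abbreviation: GI50, concentration required for 50% inhibition of growth.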 Activity calls are given as the source filed them. Rule as the data show it: active = GI50 up to about 1.1 µM and inactive = higher.

For the compound `O=[N+]([O-])C(/C=C(\Cl)n1nnc2ccccc21)=C(/Cl)n1nnc2ccccc21`, the GI50 is > 100 µM (inactive) in the experiment on A498; 76.4 µM (inactive) with CCRF-CEM; > 100 µM (inactive) in the experiment with DU-145; > 100 µM (inactive) in the experiment on HCT-116; more than 100 µM in the experiment on HCT-15; > 100 µM (inactive) in the experiment on KM12. Moreover, the GI50 in the experiment with LOX IMVI, with NCI-H226, in the experiment on NCI-H522, in the experiment on SF-268, in the experiment on SF-295 and in the experiment with SK-MEL-28 was > 100 µM (inactive) in each case. In addition, the GI50 in the experiment on SK-MEL-5, with SK-OV-3, in the experiment on SN12C, in the experiment with SR, with T47D and with UO-31 was > 100 µM (inactive) each time.
Consider `O=c1[nH]nc(Cc2ccccc2)n1/N=C/c1ccc(/C=N/n2c(Cc3ccccc3)n[nH]c2=O)cc1`, for which the GI50 in the experiment on A498 was > 100 µM (inactive); in the experiment on CCRF-CEM it was 23.8 µM (inactive); in the experiment with DU-145, > 100 µM (inactive); with HCT-116, > 100 µM (inactive); in the experiment on HCT-15 it was more than 100 µM; in the experiment with HL-60 it was 40.5 µM (inactive). Moreover, the GI50 in the experiment on KM12, with LOX IMVI, in the experiment on MCF7, in the experiment with NCI-H226, in the experiment with NCI-H522 and in the experiment on SF-268 was > 100 µM (inactive) throughout. The GI50 with SF-295 was 77.3 µM (inactive); in the experiment with SK-MEL-28, > 100 µM (inactive); with SK-MEL-5 it was > 100 µM (inactive); in the experiment on SN12C, > 100 µM (inactive); in the experiment on T47D, > 100 µM (inactive); with UO-31, > 100 µM (inactive).
For `Cc1ccc(S(=O)(=O)OCCC2CN(C(=O)OCc3ccccc3)C(C)(C)O2)cc1` (configuration not stated), the GI50 was > 100 µM (inactive) in the experiment with A498; 14.4 µM (inactive) with CCRF-CEM; 57.8 µM (inactive) in the experiment on DU-145; 7.23 µM (inactive) in the experiment on HCT-116; 3.66 µM with HCT-15; 5.24 µM (inactive) in the experiment on HL-60. In addition, the GI50 was 2.75 µM (inactive) in the experiment with KM12; 10.8 µM (inactive) with LOX IMVI; 7.83 µM (inactive) with MCF7; 0.106 µM (active) in the experiment with NCI-H226; 2.7 µM (inactive) with NCI-H522; 13.5 µM (inactive) in the experiment with SF-295. Besides, the GI50 in the experiment with SK-MEL-28 was 11.4 µM (inactive); with SK-MEL-5 it was 2.72 µM (inactive); with SK-OV-3, > 100 µM (inactive); with SN12C, > 100 µM (inactive); with SR, 4.47 µM (inactive); in the experiment on UO-31, 3.69 µM (inactive).
On to `CCCCc1c(C(=O)OC(C)(C)C)cc(C#Cc2cc(C(=O)OC(C)(C)C)c(CCCC)c(C(=O)OC(C)(C)C)c2)cc1C(=O)OC(C)(C)C`, for which the GI50 with A498 was > 100 µM (inactive); in the experiment on DU-145 it was > 100 µM (inactive); with HCT-116, > 100 µM (inactive); in the experiment on HCT-15, more than 100 µM; in the experiment with KM12, > 100 µM (inactive); in the experiment with MCF7, > 100 µM (inactive). Also, the GI50 in the experiment on NCI-H226, in the experiment on NCI-H522, in the experiment with SF-268, in the experiment on SF-295, in the experiment on SK-MEL-28 and in the experiment on SK-MEL-5 was > 100 µM (inactive) in each case. Moreover, the GI50 in the experiment on SK-OV-3, with SN12C, in the experiment on T47D and in the experiment with UO-31 was > 100 µM (inactive) throughout.
On to `O=C(O)CSCC(=O)Nc1ccc2cccc3c2c1CC3`, for which the GI50 is > 100 µM (inactive) in the experiment on A498; > 100 µM (inactive) with CCRF-CEM; > 100 µM (inactive) in the experiment on DU-145; > 100 µM (inactive) in the experiment with HCT-116; more than 100 µM with HCT-15; > 100 µM (inactive) in the experiment with HL-60. Further, the GI50 was > 100 µM (inactive) in the experiment on KM12; > 100 µM (inactive) in the experiment with LOX IMVI; 97.1 µM (inactive) with MCF7; > 100 µM (inactive) with NCI-H522; > 100 µM (inactive) with SF-268; > 100 µM (inactive) with SF-295. In addition, the GI50 with SK-MEL-28, in the experiment on SK-MEL-5, in the experiment with SN12C, in the experiment on T47D and with UO-31 was > 100 µM (inactive) in each case.
Consider `CSc1nc(C#N)c(N)n1C`, for which the GI50 was > 100 µM (inactive) in the experiment on A498; > 100 µM (inactive) in the experiment on CCRF-CEM; 64.1 µM (inactive) in the experiment on DU-145; > 100 µM (inactive) in the experiment on HCT-116; more than 100 µM in the experiment with HCT-15; > 100 µM (inactive) with HL-60. For the same compound, the GI50 with KM12, with LOX IMVI, in the experiment on NCI-H226, in the experiment on NCI-H522, in the experiment on SF-268 and with SF-295 was > 100 µM (inactive) throughout. Besides, the GI50 with SK-MEL-28, in the experiment with SK-MEL-5, with SK-OV-3, with SN12C, with SR and with T47D was > 100 µM (inactive) in each case. In addition, in the experiment on UO-31, the GI50 is > 100 µM (inactive).
As for `Cc1ccccc1NC(=O)/C(C#N)=N\Nc1[nH]cnc1C(N)=O`, the GI50 with CCRF-CEM was 2.96 µM (inactive); in the experiment on DU-145, 2.79 µM (inactive); in the experiment on HCT-116, 4.37 µM (inactive); in the experiment with HCT-15 it was 19.3 µM; in the experiment on HL-60 it was > 100 µM (inactive); in the experiment on KM12, 28.6 µM (inactive). Also, the GI50 in the experiment with MCF7 is 21.6 µM (inactive); in the experiment with NCI-H226, 41.4 µM (inactive); in the experiment on NCI-H522, 18 µM (inactive); in the experiment with SF-268, 4.11 µM (inactive); in the experiment with SF-295, 9.82 µM (inactive); in the experiment on SK-MEL-28 it was 28.7 µM (inactive). For the same compound, the GI50 was 35.3 µM (inactive) with SK-MEL-5; 1.59 µM (inactive) in the experiment with SK-OV-3; 5 µM (inactive) in the experiment with SN12C; 25.9 µM (inactive) with T47D; 1.62 µM (inactive) in the experiment with UO-31.
For the compound `O=C(O)/C=C\C(=O)Nc1ccccn1`, the GI50 is > 100 µM (inactive) in the experiment on A498; > 100 µM (inactive) in the experiment with CCRF-CEM; > 100 µM (inactive) with DU-145; > 100 µM (inactive) in the experiment on HCT-116; more than 100 µM in the experiment on HCT-15; > 100 µM (inactive) with HL-60. Further, the GI50 in the experiment on KM12, with LOX IMVI, in the experiment on NCI-H226, in the experiment on NCI-H522, in the experiment on SF-268 and in the experiment with SF-295 was > 100 µM (inactive) in each case. For the same compound, the GI50 in the experiment on SK-MEL-28, in the experiment with SK-MEL-5, with SK-OV-3, in the experiment with SN12C, in the experiment on SR and in the experiment with T47D was > 100 µM (inactive) each time. In the experiment on UO-31, the GI50 was > 100 µM (inactive).
